# Test results taken from US11596639B2, “Substituted indole Mcl-1 inhibitors” (Vanderbilt University, priority 2016, dated 2023).
# Tested on: H929 human cancer cell lines
# Assay: Cellular viability / proliferation (Cell TiterGlo, 72 h)
# Type: cell-based
# Conditions: H929 cells, 72 h, Cell TiterGlo, 10% FBS; read-out: GI50 on cellular proliferation of H929 human cancer cell lines
# Method: Cellular Viability of Human Tumor Cell Lines
# To evaluate compound effect on cellular proliferation, cells were plated at 1,000 cells/well in 96-well tissue culture plates in a total volume of 90 μL medium supplemented with 10% FBS (Sigma, Saint Louis, Mo.). 24 hours later, 10 μL of compound (in a 2-fold serial dilution) is added to the cells for a top concentration of 50 μM and a final DMSO concentration <1%. After 72 hours, 50 μL of Cell TiterGlo (Promega, Madison, Wis., USA) reagent is added to each well and plates are incubated at room temperature, in the dark, for 30 minutes. Luminescence is measured on a BioTek Cytation 3. Luminescence values are imported into a template in XLFit (Guildford, Surrey, UK) that uses a four-parameter fit to generate an IC50 value for each compound dilution series on the plate.
row,Structure (SMILES),GI50 [nM]
1,"COc1ccc(N2C[C@@H](C)n3c(c(CCCOc4cc(C)c(Cl)c(C)c4)c4ccc(Cl)c(-c5c(C)nn(C)c5C)c43)C2=O)c2c1c(C(=O)O)cn2Cc1cccc(C)n1 [Example 621, (R)-7-(7-chloro-10-(3-(4-chloro-3,5-dimethylphenoxy)propyl)-4-methyl-1-oxo-6-(1,3,5-trimethyl-1H-pyrazol-4-yl)-3,4-dihydropyrazino[1,2-a]indol-2(1H)-yl)-4-methoxy-1-((6-methylpyridin-2-yl)methyl)-1H-indole-3-carboxylic add]",390

# Same assay, conditions: Homo sapiens, NCI-H929, 72 h, read-out: GI50 on cellular proliferation of H929 human cancer cell lines, H929 cells, 72 h, Cell TiterGlo, 10% FBS
row,GI50 [nM],Structure (SMILES)
1,250,"Cc1cc(OCCCc2c3n(c4c(-c5c(C)nn(C)c5C)c(Cl)ccc24)CCCN(c2cn(C)c4ccc(C(=O)O)cc24)C3=O)cc(C)c1Cl [Example 80, 3-(8-Chloro-11-(3-(4-chloro-3,5-dimethylphenoxy)propyl)-1-oxo-7-(1,3,5-trimethyl-1H-pyrazol-4-yl)-4,5-dihydro-1H-[1,4]diazepino[1,2-a]indol-2(3H)-yl)-1-methyl-1H-indole-5-carboxylic acid]"
2,< 200,"Cc1cc(OCCCc2c3n(c4c(-c5c(C)nn(C)c5C)c(Cl)ccc24)[C@H](C)CN(c2cn(C)c4ccc(C(=O)O)cc24)C3=O)cc(C)c1Cl [Example 76, (R)-3-(7-Chloro-10-(3-(4-chloro-3,5-dimethylphenoxy)propyl)-4-methyl-1-oxo-6-(1,3,5-trimethyl-1H-pyrazol-4-yl)-3,4-dihydropyrazino[1,2-a]indol-2(1H)-yl)-1-methyl-1H-indole-5-carboxylic acid]"
3,3400,"Cc1cc(OCCCc2c3n(c4c(-c5c(C)nn(C)c5C)c(Cl)ccc24)[C@@H](C)CN(c2cn(C)c4ccc(C(=O)O)cc24)C3=O)cc(C)c1Cl [Example 212, (S)-3-(7-chloro-10-(3-(4-chloro-3,5-dimethylphenoxy)propyl)-4-methyl-1-oxo-6-(1,3,5-trimethyl-1H-pyrazol-4-yl)-3,4-dihydropyrazino[1,2-a]indol-2(1H)-yl)-1-methyl-1H-indole-5-carboxylic acid]"

row,Structure (SMILES),GI50 [nM]
1,"Cc1cccc(Cn2c(C(=O)O)cc3cc(OCCN(C)C)cc(N4C[C@@H](C)n5c(c(CCCOc6cc(C)c(Cl)c(C)c6)c6ccc(Cl)c(-c7c(C)nn(C)c7C)c65)C4=O)c32)n1 [Example 592, (R)-7-(7-chloro-10-(3-(4-chloro-3,5-dimethylphenoxy)propyl)-4-methyl-1-oxo-6-(1,3,5-trimethyl-1H-pyrazol-4-yl)-3,4-dihydropyrazino[1,2-a]indol-2(1H)-yl)-5-(2-(dimethylamino)ethoxy)-1-((6-methylpyridin-2-yl)methyl)-1H-indole-2-carboxylic acid]",880

# Target: Mcl-1 (Homo sapiens (Human), UniProt Q07820)
# Assay: Fluorescence polarization anisotropy (FPA) competition assay, FITC-Bak or FITC-Bim BH3 peptide
# Type: binding
# Conditions: read-out: Ki for Inhibition of Mcl-1 by FPA assay
# Sequence of Mcl-1 (Q07820 172-327): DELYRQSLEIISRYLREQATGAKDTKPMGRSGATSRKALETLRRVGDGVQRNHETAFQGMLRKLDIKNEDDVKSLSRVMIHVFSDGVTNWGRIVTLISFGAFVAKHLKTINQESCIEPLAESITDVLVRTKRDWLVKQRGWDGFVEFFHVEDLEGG
row,Structure (SMILES),Ki [nM]
1,"Cc1cc(OCCCc2c3n(c4c(-c5c(C)nn(C)c5C)c(Cl)ccc24)CCCN(c2cccc4c(C#N)cn(C)c24)C3=O)cc(C)c1Cl [Example 6, 7-[8-Chloro-11-[3-(4-chloro-3,5-dimethyl-phenoxy)propyl]-1-oxo-7-(1,3,5-trimethylpyrazol-4-yl)-4,5-dihydro-3H-[1,4]diazepino[1,2-a]indol-2-yl]-1-methyl-indole-3-carbonitrile]",54
2,"Cc1cc(OCCCc2c3n(c4c(-c5c(C)cccc5C)c(Cl)ccc24)CCCN(c2cc(C(=O)O)c4ccn(C)c4c2)C3=O)cc(C)c1Cl [Example 91, 6-[8-Chloro-11-[3-(4-chloro-3,5-dimethyl-phenoxy)propyl]-7-(2,6-dimethylphenyl)-1-oxo-4,5-dihydro-3H-[1,4]diazepino[1,2-a]indol-2-yl]-1-methyl-indole-4-carboxylic acid]",7.3
3,"Cc1cc(OCCCc2c3n(c4c(-c5c(C)ncnc5C)c(Cl)ccc24)[C@H](C)CN(c2cccc4cccc(C(=O)O)c24)C3=O)cc(C)c1Cl [Example 255, 8-[(4R)-7-chloro-10-[3-(4-chloro-3,5-dimethyl-phenoxy)propyl]-6-(4,6-dimethylpyrimidin-5-yl)-4-methyl-1-oxo-3,4-dihydropyrazino[1,2-a]indol-2-yl]naphthalene-1-carboxylic acid]",1.3
4,"Cc1cc(OCCCc2c3n(c4c(-c5c(C)nn(C)c5C)c(Cl)ccc24)[C@H](C)CN(c2ccc(C(=O)O)c(Cl)c2)C3=O)cc(C)c1Cl [Example 35, (R)-2-chloro-4-(7-chloro-10-(3-(4-chloro-3,5-dimethylphenoxy)propyl)-4-methyl-1-oxo-6-(1,3,5-trimethyl-1H-pyrazol-4-yl)-3,4-dihydropyrazino[1,2-a]indol-2(1H)-yl)benzoic acid]",1.5
5,"Cc1cc(CCCCc2c(C(=O)N3CCN(c4cc(C(=O)O)ccn4)CC3)n(Cc3cccnc3)c3c(-c4c(C)nn(C)c4C)c(Cl)ccc23)cc(C)c1Cl [Example 741, 2-(4-(6-Chloro-3-(4-(4-chloro-3,5-dimethylphenyl)butyl)-1-(pyridin-3-ylmethyl)-7-(1,3,5-trimethyl-1H-pyrazol-4-yl)-1H-indole-2-carbonyl)piperazin-1-yl)isonicotinic acid]",> 200
6,"Cc1cc(OCCCc2c3n(c4c(-c5c(C)nn(C)c5C)c(Cl)ccc24)[C@H](C)CN(c2cn(C)c4ccc(-c5nnc(-c6ccccc6)o5)cc24)C3=O)cc(C)c1Cl [Example 421, (R)-7-chloro-10-(3-(4-chloro-3,5-dimethylphenoxy)propyl)-4-methyl-2-(1-methyl-5-(5-phenyl-1,3,4-oxadiazol-2-yl)-1H-indol-3-yl)-6-(1,3,5-trimethyl-1H-pyrazol-4-yl)-3,4-dihydropyrazino[1,2-a]indol-1(2H)-one]",3.4
7,"Cc1cc(OCCCc2c3n(c4c(-c5c(C)nn(C)c5C)c(Cl)ccc24)[C@H](C)CN(c2cnc4ccc(C(=O)O)cn24)C3=O)cc(C)c1Cl [Example 473, (R)-3-(7-chloro-10-(3-(4-chloro-3,5-dimethylphenoxy)propyl)-4-methyl-1-oxo-6-(1,3,5-trimethyl-1H-pyrazol-4-yl)-3,4-dihydropyrazino[1,2-a]indol-2(1H)-yl)imidazo[1,2-a]pyridine-6-carboxylic acid]",4.1
8,"COC(=O)c1cn(C)c2c(N3C[C@@H](C)n4c(c(CCCOc5cc(C)c(Cl)c(C)c5)c5ccc(Cl)c(-c6c(C)nn(C)c6C)c54)C3=O)cccc12 [Example 205, Methyl (R)-7-(7-chloro-10-(3-(4-chloro-3,5-dimethylphenoxy)propyl)-4-methyl-1-oxo-6-(1,3,5-trimethyl-1H-pyrazol-4-yl)-3,4-dihydropyrazino[1,2-a]indol-2(1H)-yl)-1-methyl-1H-indole-3-carboxylate]",2.4
9,"Cc1cc(OCCCc2c3n(c4c(-c5c(C)nn(C)c5C)c(Cl)ccc24)[C@H](C)CN(c2cccc4c2cc(C(=O)O)n4CCN2CCCC2)C3=O)cc(C)c1Cl [Example 369, (R)-4-(7-Chloro-10-(3-(4-chloro-3,5-dimethylphenoxy)propyl)-4-methyl-1-oxo-6-(1,3,5-trimethyl-1H-pyrazol-4-yl)-3,4-dihydropyrazino[1,2-a]indol-2(1H)-yl)-1-(2-(pyrrolidin-1-yl)ethyl)-1H-indole-2-carboxylic acid]",3.2
10,"Cc1cc(OCCCc2c3n(c4c(-c5c(C)nn(C)c5C)c(Cl)ccc24)CCCN(Cc2cc(C(=O)O)cc(N4CCNCC4)n2)C3=O)cc(C)c1Cl [Example 10, 2-((8-Chloro-11-(3-(4-chloro-3,5-dimethylphenoxy)propyl)-1-oxo-7-(1,3,5-trimethyl-1H-pyrazol-4-yl)-4,5-dihydro-1H-[1,4]diazepino[1,2-a]indol-2(3H)-yl)methyl)-6-(piperazin-1-yl)isonicotinic acid]",57
11,"CCN1C(=O)COc2cc(C(=O)O)cc(N3C[C@@H](C)n4c(c(CCCOc5cc(C)c(Cl)c(C)c5)c5ccc(Cl)c(-c6c(C)nn(C)c6C)c54)C3=O)c21 [Example 90, (R)-5-(7-chloro-10-(3-(4-chloro-3,5-dimethylphenoxy)propyl)-4-methyl-1-oxo-6-(1,3,5-trimethyl-1H-pyrazol-4-yl)-3,4-dihydropyrazino[1,2-a]indol-2(1H)-yl)-4-ethyl-3-oxo-3,4-dihydro-2H-benzo[b][1,4]oxazine-7-carboxylic acid]",8.7
12,"Cc1cc(OCCCc2c3n(c4c(-c5c(C)nn(C)c5C)c(Cl)ccc24)CCCN(c2ccc4c(c2)CCCN4CC(=O)O)C3=O)cc(C)c1Cl [Example 46, 2-(6-(8-Chloro-11-(3-(4-chloro-3,5-dimethylphenoxy)propyl)-1-oxo-7-(1,3,5-trimethyl-1H-pyrazol-4-yl)-4,5-dihydro-1H-[1,4]diazepino[1,2-a]indol-2(3H)-yl)-3,4-dihydroquinolin-1(2H)-yl)acetic acid]",26
13,"Cc1cc(OCCCc2c3n(c4c(-c5c(C)nn(C)c5C)c(Cl)ccc24)[C@H](C)CN(c2cccc4c2cc(C(N)=O)n4C)C3=O)cc(C)c1Cl [Example 266, 4-[(4R)-7-chloro-10-[3-(4-chloro-3,5-dimethyl-phenoxy)propyl]-4-methyl-1-oxo-6-(1,3,5-trimethylpyrazol-4-yl)-3,4-dihydropyrazino[1,2-a]indol-2-yl]-1-methyl-indole-2-carboxamide]",9.2
14,"Cc1cc(OCCCc2c3n(c4c(-c5c(C)nn(C)c5C)c(Cl)ccc24)CCCN(Cc2cc(C(=O)O)cc(N4CCN(S(=O)(=O)C5CC5)CC4)n2)C3=O)cc(C)c1Cl [Example 47, 2-((8-Chloro-11-(3-(4-chloro-3,5-dimethylphenoxy)propyl)-1-oxo-7-(1,3,5-trimethyl-1H-pyrazol-4-yl)-4,5-dihydro-1H-[1,4]diazepino[1,2-a]indol-2(3H)-yl)methyl)-6-(4-(cyclopropylsulfonyl)piperazin-1-yl)isonicotinic acid]",19
